From US20250228239A1, “MOLECULES HAVING PESTICIDAL UTILITY, AND INTERMEDIATES, COMPOSITIONS, AND PROCESSES, RELATED THERETO” (priority 2024, published 2025) come the findings set out here.

Read-outs that look alike come from different tables or passages of the source.

Common to all, as to type: in vivo
In series [1] the test system is Yellow Fever Mosquito (Aedes aegypti, AEDSAE). The conditions noted are these: for YFM rating: Table ABC / ABC-DP rating; for YFM % Control (or Mortality) rating: about 1 day-old larvae, 4000 ppm master solution diluted with 90:10 water/acetone, 15 μL per well plus 220 μL larval mixture, 3 days. Here is the method:
Certain molecules disclosed in this document were tested against YFM using procedures described in the following paragraph. In the reporting of the results, the “GPA & YFM Rating Table” was used (See Table Section).
Master plates containing 400 μg of a molecule dissolved in 100 μL of dimethyl sulfoxide (DMSO) (equivalent to a 4000 ppm solution) are used. A master plate of assembled molecules contains 15 μL per well. To this plate, 135 μL of a 90:10 water/acetone mixture is added to each well. A robot (Biomek® NXP Laboratory Automation Workstation) is programmed to dispense 15 μL aspirations from the master plate into an empty 96-well shallow plate (“daughter” plate). There are 6 reps (“daughter” plates) created per master. The created “daughter” plates are then immediately infested with YFM larvae.
The day before plates are to be treated, mosquito eggs are placed in Millipore water containing liver powder to begin hatching (4 g into 400 mL). After the “daughter” plates are created using the robot, they are infested with 220 μL of the liver powder/larval mosquito mixture (about 1 day-old larvae). After plates are infested with mosquito larvae, a non-evaporative lid is used to cover the plate to reduce drying. Plates are held at room temperature for 3 days prior to grading. After 3 days, each well is observed and scored based on mortality. The results are indicated in the table entitled “Table ABC: Biological Results” (See Table Section).

In series [2] the test system is Cabbage Looper (Trichoplusia ni, TRIPNI). The experiment in a line: Bioassays on Cabbage Looper (CL), 128-well diet tray assay. The conditions noted are these: Trichoplusia ni. The method in brief: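 Test molecule was dissolved in 90:10 acetone-water, applied to artificial diet at 50 μg/cm^2 and allowed to dry. Second-instar larvae were then added, one to five per well, and trays held at 25° C for five to seven days before mortality was scored and averaged.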

Series [3] deals with Beet Armyworm (Spodoptera exigua, LAPHEG). As to the kind of experiment: Bioassays on Beet Armyworm (BAW), 128-well diet tray assay. The conditions noted are these: Spodoptera exigua. A digest of the protocol:
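Second-instar larvae, one to five per well, were placed on artificial diet surface-treated with 50 μg/cm^2 compound in 90:10 acetone-water, eight wells per treatment. Trays were held 5–7 days at 25 °C, 14:10 light-dark. Percent mortality per well was averaged over eight wells.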

[4] abbreviates: Table ABC: Biological Results, species YFM.
Where [5] appears, read: Table ABC: Biological Results, species CL, read-out: CL.
Where [6] appears, read: Table ABC: Biological Results, species BAW, read-out: BAW.
Where [7] appears, read: Cabbage Looper, Table ABC / ABC-DP rating, read-out: CL rating.
[8] abbreviates: Beet Armyworm, Table ABC / ABC-DP rating, read-out: BAW rating.
Where [9] appears, read: Cabbage Looper, rating class, read-out: CL.
Setting [10] is: Beet Armyworm, rating class, read-out: BAW.

Turning to `O=C(Nc1ccc(F)cc1F)c1cc(NC(=O)[C@H]2[C@@H](c3cc(F)c(Cl)c(C(F)(F)F)c3)C2(Cl)Cl)ccc1Cl` (relative stereo) [F1164, cis-2-Chloro-5-(2,2-dichloro-3-(4-chloro-3-fluoro-5-(trifluoromethyl)phenyl)cyclopropane-1-carboxamido)-N-(2,4-difluorophenyl)benzamide], the YFM result in series [1] (setting [4]) was “A (80–100)”. The pest or weed control at 50 µg/cm2 in series [2] (setting [5]) and in series [3] (setting [6]) was 50 to 100% throughout.
With `Nc1ccc(F)c(NC(=O)c2cc(NC(=O)[C@H]3[C@H](c4ccc(F)c(C(F)(F)F)c4)C3(Cl)Cl)ccc2Cl)c1F` [F1391, N-(3-Amino-2,6-difluorophenyl)-2-chloro-5-((1R,3R)-2,2-dichloro-3-(4-fluoro-3-(trifluoromethyl)phenyl)cyclopropane-1-carboxamido)benzamide], in series [1] (setting [4]), the YFM entry was “A (80–100)”. The pest or weed control at 50 µg/cm2 in series [2] (setting [5]) and in series [3] (setting [6]) was 50 to 100% throughout.
`CC(C)(C)OC(=O)Nc1c(F)ccc(NC(=O)c2cc(NC(=O)[C@H]3[C@H](c4ccc(F)c(C(F)(F)F)c4)C3(Cl)Cl)ccc2Cl)c1F` (relative stereo) [F1078, trans-tert-Butyl-(3-(2-chloro-5-(2,2-dichloro-3-(4-fluoro-3-(trifluoromethyl)phenyl)cyclopropane-1-carboxamido)benzamido)-2,6-difluorophenyl)carbamate]: in series [1] (setting [4]), the YFM entry is recorded as “A (80–100)”. Moreover, the pest or weed control at 50 µg/cm2 in series [2] (setting [5]) and in series [3] (setting [6]) was 50 to 100% each time.
On to `O=C(NNc1ncccn1)c1cc(NC(=O)[C@H]2[C@H](c3cc(Cl)cc(Cl)c3)C2(Cl)Cl)ccc1Cl` (relative stereo) [F2508, trans-2,2-Dichloro-N-(4-chloro-3-(2-(pyrimidin-2-yl)hydrazine-1-carbonyl)phenyl)-3-(3,5-dichlorophenyl)cyclopropane-1-carboxamide], for which, in series [1] (Yellow Fever Mosquito), the YFM rating entry is reported as “A (80–100)”. In addition, the pest or weed control at 50 µg/cm2 in series [2] (setting [7]) and in series [3] (setting [8]) was 50 to 100% throughout.
In the case of `CCCC(=O)Nc1c(F)ccc(NC(=O)c2cc(NC(=O)[C@H]3[C@H](c4ccc(F)c(C(F)(F)F)c4)C3(Cl)Cl)ccc2Cl)c1F` [F1385, N-(3-Butyramido-2,4-difluorophenyl)-2-chloro-5-((1R,3R)-2,2-dichloro-3-(4-fluoro-3-(trifluoromethyl)phenyl)cyclopropane-1-carboxamido)benzamide], the YFM result in series [1] (setting [4]) was “A (80–100)”. Besides, the pest or weed control at 50 µg/cm2 in series [2] (setting [5]) and in series [3] (setting [6]) was 50 to 100% each time.
Take `O=C(COC(F)(F)F)Nc1c(F)ccc(NC(=O)c2cc(NC(=O)[C@H]3[C@H](c4ccc(F)c(Cl)c4)C3(Cl)Cl)ccc2Cl)c1F` [F1768, 2-Chloro-5-((1R,3R)-2,2-dichloro-3-(3-chloro-4-fluorophenyl)cyclopropane-1-carboxamido)-N-(2,4-difluoro-3-(2-(trifluoromethoxy)acetamido)phenyl)benzamide]: the YFM rating result in series [1] (Yellow Fever Mosquito) is reported as “A (80–100)”. Also, the pest or weed control at 50 µg/cm2 in series [2] (setting [7]) and in series [3] (setting [8]) was 50 to 100% in each case.
Turning to `O=C(CC1CC1)Nc1c(F)ccc(NC(=O)c2cc(NC(=O)[C@H]3[C@H](c4ccc(Cl)c(Cl)c4)C3(Cl)Cl)ccc2Cl)c1F` [F1417, 2-Chloro-N-(3-(2-cyclopropylacetamido)-2,4-difluorophenyl)-5-((1R,3R)-2,2-dichloro-3-(3,4-dichlorophenyl)cyclopropane-1-carboxamido)benzamide], in series [1] (Yellow Fever Mosquito, rating class), the YFM result is reported as “A (80–100)”. Moreover, the pest or weed control at 50 µg/cm2 in series [2] (setting [9]) and in series [3] (setting [10]) was 50 to 100% each time.
As to `CN(NC(=O)c1cc(NC(=O)[C@H]2[C@H](c3cc(Cl)cc(Cl)c3)C2(Cl)Cl)ccc1Cl)C(=O)OC(C)(C)C` (relative stereo) [F2520, trans-tert-Butyl 2-(2-chloro-5-(2,2-dichloro-3-(3,5-dichlorophenyl)cyclopropane-1-carboxamido)benzoyl)-1-methylhydrazine-1-carboxylate], the YFM rating entry in series [1] (Yellow Fever Mosquito) is given as “A (80–100)”. In addition, the pest or weed control at 50 µg/cm2 in series [2] (setting [7]) and in series [3] (setting [8]) was 50 to 100% each time.
Turning to `CC(C)(C)OC(=O)N(C(=O)OC(C)(C)C)c1cc(NC(=O)c2cc(NC(=O)[C@H]3[C@H](c4ccc(Cl)c(Cl)c4)C3(Cl)Cl)ccc2Cl)c(F)cc1F` [DP12, tert-Butyl-N-((tert-butoxy)carbonyl)-N-(5-(2-chloro-5-((1R,3R)-2,2-dichloro-3-(3,4-dichlorophenyl)cyclopropane-1-carboxamido)benzamido)-2,4-difluorophenyl)carbamate], the “YFM % Control (or Mortality) rating” value in series [1] is “D (No activity noticed in this bioassay)”. For the same compound, the mortality (commonly the share of the test organisms that died) at 50 µg/cm2 in series [2] (168 h, second instar larvae, 50 μg/cm^2 of test molecule on artificial diet, 25° C., five to seven days, average of eight wells, read-out: CL % Control (or Mortality) rating) was 50 to 100%; in series [3] (168 h, second instar larvae, 50 μg/cm^2 of test molecule on artificial diet, 25° C., five to seven days, average of eight wells, read-out: BAW % Control (or Mortality) rating) it was 50 to 100%. Also, the pest or weed control at 50 µg/cm2 in series [2] (setting [7]) and in series [3] (setting [8]) was 50 to 100% in each case.
With `O=C(Nc1ccc(F)cc1F)c1cc(NC(=O)C2C(c3cc(Br)cc(S(F)(F)(F)(F)F)c3)C2(Cl)Cl)ccc1Cl` (stereo not drawn) [F1032, cis-5-(3-(3-Bromo-5-(pentafluoro-λ^6-sulfanyl)phenyl)-2,2-dichiorocyclopropane-1-carboxamido)-2-chloro-N-(2,4-difluorophenyl)benzamide], the YFM result in series [1] (setting [4]) is recorded as “A (80–100)”. Further, the pest or weed control at 50 µg/cm2 in series [2] (setting [5]) and in series [3] (setting [6]) was 50 to 100% in each case.
Turning to `CCNC(=O)c1cc(NC(=O)[C@H]2[C@H](c3ccc(F)c(C(F)(F)F)c3)C2(Cl)Cl)c(F)cc1Cl` [F2083, 2-Chloro-5-((1R,3R)-2,2-dichloro-3-(4-fluoro-3-(trifluoromethyl)phenyl)cyclopropane-1-carboxamido)-N-ethyl-4-fluorobenzamide], in series [1] (Yellow Fever Mosquito), the YFM rating result is given as “B (More than 0 – Less than 80)”. In series [2] (setting [7]), the pest or weed control at 50 µg/cm2 was 50 to 100%.
Turning to `O=C(NNc1ccc(C(F)(F)F)cc1)c1cc(NC(=O)[C@H]2[C@H](c3cc(Cl)cc(Cl)c3)C2(Cl)Cl)ccc1Cl` (relative stereo) [F2571, trans-2,2-Dichloro-N-(4-chloro-3-(2-(4-(trifluoromethyl)phenyl)hydrazine-1-carbonyl)phenyl)-3-(3,5-dichlorophenyl)cyclopropane-1-carboxamide], in series [1] (Yellow Fever Mosquito), the YFM rating result is listed as “A (80–100)”. Further, in series [1], the “YFM % Control (or Mortality) rating” value is given as “A (80–100)”.
On to `CCNC(=O)c1cc(NC(=O)[C@H]2[C@H](c3ccc(F)c(Cl)c3)C2(Cl)Cl)cc(F)c1OC` (relative stereo) [F2057, trans-5-(2,2-Dichloro-3-(3-chloro-4-fluorophenyl)cyclopropane-1-carboxamido)-N-ethyl-3-fluoro-2-methoxybenzamide], for which the YFM rating result in series [1] (Yellow Fever Mosquito) is recorded as “A (80–100)”. In addition, the pest or weed control at 50 µg/cm2 in series [2] (setting [7]) lay within 50 to 100%.
In the case of `Cc1cc(NC(=O)[C@H]2[C@H](c3ccc(F)c(C(F)(F)F)c3)C2(Cl)Cl)cc(C(=O)Nc2c(F)ccc(NC(=O)C(F)(F)F)c2F)c1Cl` [F1469, 2-Chloro-5-((1R,3R)-2,2-dichloro-3-(4-fluoro-3-(trifluoromethyl)phenyl)cyclopropane-1-carboxamido)-N-(2,6-difluoro-3-(2,2,2-trifluoroacetamido)phenyl)-3-methylbenzamide], the pest or weed control at 50 µg/cm2 in series [2] (setting [9]) and in series [3] (setting [10]) was 50 to 100% throughout.
Regarding `Cc1cc(NC(=O)[C@H]2[C@H](c3cc(Cl)c(Cl)c(Cl)c3)C2(Cl)Cl)cc(C(=O)Nc2cc(NC(=O)C(F)F)c(F)cc2F)c1Cl` [F1498, 2-Chloro-5-((1R,3R)-2,2-dichloro-3-(3,4,5-trichlorophenyl)cyclopropane-1-carboxamido)-N-(5-(2,2-difluoroacetamido)-2,4-difluorophenyl)-3-methylbenzamide], the pest or weed control at 50 µg/cm2 in series [2] (setting [9]) and in series [3] (setting [10]) was 50 to 100% in each case.
`CC(=O)Nc1cc(NC(=O)c2cc(NC(=O)[C@H]3[C@H](c4ccc(Cl)c(Cl)c4)C3(Cl)Cl)cc(C)c2Cl)c(F)cc1F` [F1546, N-(5-Acetamido-2,4-difluorophenyl)-2-chloro-5-((1R,3R)-2,2-dichloro-3-(3,4-dichlorophenyl)cyclopropane-1-carboxamido)-3-methylbenzamide]: the pest or weed control at 50 µg/cm2 in series [2] (setting [9]) and in series [3] (setting [10]) was 50 to 100% each time.
